Values quoted from earlier work, collected in US20090181905A1, “CRYSTALLINE FORM OF 1' -(1-METHYLETHYL)-4' -[(2-FLUORO-4-METHOXYPHENYL)METHYL]-5' -METHYL-1H-PYRAZOL-3' -O-BETA-D-GLUCOPYRANOSIDE, A METHOD FOR ITS PREPARATION AND THE USE THEREOF FOR PREPARING MEDICAMENTS” (BOEHRINGER INGELHEIM INTERNATIONAL GMBH, priority 2006, published 2009).

Tested on: HbA1c
Conditions: metformin on its own, in the diabetic

## CN(C)C(=N)N=C(N)N [metformin]
  average improvement in the HbA1c value: 1.0-1.5%
